Reference: the supplement of paper PMC10307832

Columns and labels:
Test in all cases: relative viability (nuclei count vs DMSO), 5 days (fraction); higher = more cells survive
Decitabine + Foretinib = compound: Nc1ncn([C@H]2C[C@H](O)[C@@H](CO)O2)c(=O)n1 [Decitabine] + COc1cc2c(Oc3ccc(NC(=O)C4(C(=O)Nc5ccc(F)cc5)CC4)cc3F)ccnc2cc1OCCCN1CCOCC1 [Foretinib] (partner 0.25 µM)
Summary of the method: (§1)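 Lung cancer cell lines in 1536-well plates got either a single drug or a fixed anchor-drug dose together with five library-drug doses (not always all listed) in √10 steps, by pin tool, on the day after seeding. Nuclei were counted after 5 days, and relative viability is the treated-to-vehicle ratio of nuclei counts. Values are medians of duplicate plates.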

Decitabine + Alpelisib = compound: Nc1ncn([C@H]2C[C@H](O)[C@@H](CO)O2)c(=O)n1 [Decitabine] + Cc1nc(NC(=O)N2CCC[C@H]2C(N)=O)sc1-c1ccnc(C(C)(C)C(F)(F)F)c1 [Alpelisib] (partner 2 µM)
Summary of the method: as §1

[1] = compound: O=C(C[C@H]1NCCC[C@@H]1O)Cn1cnc2cc(Br)c(Cl)cc2c1=O (racemic) [Halofuginone] + Nc1ncn([C@H]2C[C@H](O)[C@@H](CO)O2)c(=O)n1 [Decitabine] (partner 2 µM)
Summary of the method: as §1

Cediranib + Alpelisib = compound: COc1cc2c(Oc3ccc4[nH]c(C)cc4c3F)ncnc2cc1OCCCN1CCCC1 [Cediranib] + Cc1nc(NC(=O)N2CCC[C@H]2C(N)=O)sc1-c1ccnc(C(C)(C)C(F)(F)F)c1 [Alpelisib] (partner 2 µM)
Summary of the method: as §1

Row | Cell Line | relative viability (Decitabine + Foretinib; first compound 0.04 µM) | relative viability (Decitabine + Foretinib; first compound 0.1265 µM) | relative viability (Decitabine + Foretinib; first compound 1.265 µM) | relative viability (Decitabine + Foretinib; first compound 4 µM) | relative viability (Decitabine + Alpelisib; first compound 0.04 µM) | relative viability (Decitabine + Alpelisib; first compound 0.1265 µM) | relative viability (Decitabine + Alpelisib; first compound 0.4 µM) | relative viability (Decitabine + Alpelisib; first compound 1.265 µM) | relative viability (Decitabine + Alpelisib; first compound 4 µM) | relative viability ([1]; first compound 0.001 µM) | relative viability ([1]; first compound 0.003162 µM) | relative viability ([1]; first compound 0.01 µM) | relative viability ([1]; first compound 0.03162 µM) | relative viability ([1]; first compound 0.1 µM) | relative viability (Cediranib + Alpelisib; first compound 0.04 µM) | relative viability (Cediranib + Alpelisib; first compound 0.1265 µM) | relative viability (Cediranib + Alpelisib; first compound 0.4 µM) | relative viability (Cediranib + Alpelisib; first compound 1.265 µM) | relative viability (Cediranib + Alpelisib; first compound 4 µM) | relative viability (Decitabine + Foretinib; first compound 0.4 µM)
1 | NCI-H596 | 0.764 | 0.819 | 0.625 | 0.582 | 0.449 | 0.46 | 0.462 | 0.451 | 0.407 | 1.01 | 0.961 | 1.09 | 1.01 | 0.775 | 0.489 | 0.481 | 0.478 | 0.509 | 0.577 | 
2 | NCI-H647 | 0.966 | 0.919 | 0.35 | 0.234 | 0.971 | 0.858 | 0.632 | 0.201 | 0.254 | 0.408 | 0.452 | 0.432 | 0.334 | 0.215 | 1.35 | 1.3 | 1.02 | 0.876 | 1.21 | 0.509
3 | NCI-H650 | 0.929 | 0.667 | 0.363 | 0.319 | 0.739 | 0.538 | 0.484 | 0.326 | 0.29 | 0.362 | 0.314 | 0.285 | 0.323 | 0.28 | 1.06 | 1.02 | 1.05 | 1.12 | 1.21 | 0.506
4 | NCI-H661 | 1.02 | 0.966 | 0.6 | 0.554 | 0.432 | 0.44 | 0.313 | 0.246 | 0.342 | 0.595 | 0.618 | 0.564 | 0.555 | 0.479 | 0.633 | 1.03 | 0.631 | 0.522 | 0.588 | 0.777
5 | NCI-H727 | 0.669 | 0.675 | 0.775 | 0.483 | 0.453 | 0.405 | 0.333 | 0.35 | 0.401 | 0.85 | 0.764 | 0.954 | 0.944 | 0.723 | 0.452 | 0.59 | 0.55 | 0.624 | 0.551 | 0.651
6 | NCI-H838 | 0.716 | 0.492 | 0.387 | 0.301 | 0.715 | 0.461 | 0.409 | 0.396 | 0.276 | 0.502 | 0.465 | 0.445 | 0.458 | 0.281 | 1.06 | 0.997 | 0.97 | 0.962 | 1.13 | 0.357
7 | NCI-H1355 | 0.568 | 0.596 | 0.374 | 0.305 | 0.632 | 0.536 | 0.412 | 0.295 | 0.266 | 0.401 | 0.332 | 0.359 | 0.351 | 0.385 | 0.993 | 0.879 | 0.704 | 0.838 | 0.956 | 0.436
8 | NCI-H1395 | 0.798 | 0.801 | 0.586 | 0.55 | 0.821 | 0.776 | 0.786 | 0.518 | 0.631 | 0.662 | 0.69 | 0.751 | 0.631 | 0.519 | 0.947 |  | 1.01 | 1.04 | 1.04 | 0.687
